Source: patent publication EP0652217A1, “N-substituted imidazole derivatives” (MITSUBISHI CHEMICAL CORPORATION, priority 1993, dated 1995)

Legend:
Type in all cases: in vivo
[1] = tested on: golden syrian hamsters; experiment: Anti-hyperlipemic activity: inhibition of serum total cholesterol increase in cholesterol-fed hamsters; conditions: hamsters on feed with 1 % cholesterol and 0.5 % cholic acid
Method: Six-week old golden syrian hamsters (4 to 5 animals/group) were used.
Untreated control group received normal solid feed (MF, Oriental Kobo Kogyo), while control and a drug-treated groups received feed containing 1 % cholesterol and 0.5 % cholic acid (manufactured by Oriental Kobo Kogyo) to induce […].
The test compound was suspended in 1.0 % Tween 80. The solvent or the test compound was started to be orally administered (10 ml/kg, once a day, for 5 days) as soon as feed was changed to cholesterol-containing feed. Alter final administration, blood was drawn from abdominal descendens main vein while anesthetized with nembutal. Serum was collected and total cholesterol (TC) in serum was determined according to enzymatic method using assay kit (Kyowa Medics).

[2] = tested on: Spontaneously hypertensive rats (SHR); experiment: Antihypertensive activity: blood pressure lowering in SHR; conditions: oral, suspended in 1.0 % Tween 80
Method: Spontaneously hypertensive rats (SHR) were anesthetized with ether and polyethylene catheter for measurement of blood pressure was inserted in ventral aortas via caudal artery on the day before these experiments, and placed in separate cages and their tails were fixed. Under aparalytic conditions, blood pressure of semi-restrained rats was measured using a pressure transducer (TP-400T, manufactured by Nippon Koden). Heart rate was determined from pulse wave measured by a cardiotachometer (AT0691G, manufactured by Nippon Koden). On the test day, the test compounds were administered to rats after blood pressure and heart rate were confirmed to become sufficiently stable.
The test compounds were suspended in Tween 80 (1.0 % solution, 10 ml/kg) and orally administered to SHRs.

[3] = tested on: KK-A^v mice; experiment: Activity to lower blood sugar (hypoglycaemic activity) in KK-A^v mice; conditions: serum
Method: Ten-week old KK-A^v mice (4 - 6 animals/group) were used.
The solvent (1 % Tween 80 solution) or a suspension of the test compound was orally administered once a day for 11 days (10 ml/kg).
Before administration and after the final administration, blood was drawn from caudal vein, and serum was collected and blood sugar level in serum was determined.
There was no difference between blood sugar levels before and after administration for control group. The test compound provided statistically significant decrease in blood sugar level for KK-A^v mice compared with the value before administration. The change in weight of test compound-treated group during oral administration was almost same as that of the control group.

[4] = oral 30 mg/kg once a day for 5 days
[5] = oral 100 mg/kg once a day for 5 days

Compound	Inhibition of TC increase [1, 4] [%]	Inhibition of TC increase [1, 5] [%]	Maximum fall in blood pressure ([2]; dose 10 mg/kg) [mmHg]	other results
O=C(NCCCn1ccnc1)c1ccc2c(c1)OCO2 [Compound 13, N-[3-(1-imidazolyl)propyl]-3,4-methylenedioxybenzamide]	26	60		
c1cc(OCCCn2cnc3ccccc32)c2c(c1)OCO2 [Compound 6, 4-[3-(1-benzimidazolyl)propoxy]-1,3-benzodioxole]			-20	
O=C(NCCCn1ccnc1)c1ccc2c(c1)OCCO2 [Compound 16, N-[3-(1-imidazolyl)propyl]-1,4-benzodioxane-6-carboxamide]		79		Maximum fall in blood pressure ([2]; dose 30 mg/kg): -34.3 mmHg
Clc1ncn(CCCOc2cccc3c2OCO3)c1Cl [Compound 5, 4-[3-(4,5-dichloro-1-imidazolyl)propoxy]-1,3-benzodioxole]			-20	
N#Cc1ncn(CCCOc2cccc3c2OCO3)c1C#N [Compound 4, 4-[3-(4,5-dicyano-1-imidazolyl)propoxy]-1,3-benzodioxole]			-20	
c1cc(OCCCCn2ccnc2)c2c(c1)OCO2 [Compound 7, 4-[4-(1-imidazolyl)butoxy]-1,3-benzodioxole]	38		-60	
c1cc(OCCCCCn2ccnc2)c2c(c1)OCO2 [Compound 8, 4-[5-(1-imidazolyl)pentoxy]-1,3-benzodioxole]			-25	
c1cc(OCCCn2ccnc2)c2c(c1)OCO2 [Compound 1, 4-[3-(1-imidazolyl)propoxy]-1,3-benzodioxole]	80	100		Blood sugar level, After administration ([3]; after oral 30 mg/kg once a day for 11 days, P < 0.05 vs value before administration): 532.2 ± 23.9; Blood sugar level, Before administration ([3]; baseline before administration, 30 mg/kg group): 676.4 ± 33.7
